Experimental findings from ChEMBL document CHEMBL1201862, “PubChem BioAssay data set” (2004) are described below.

Activity calls are given as the source filed them.

In experiment [1] the target is Luciferin 4-monooxygenase (Photinus pyralis, UniProt P08659). Briefly: inhibition of purified Photinus pyralis luciferase – biochemical, luminescence, dose response (AID 1891).
The target of experiment [2] is Beta-2 adrenergic receptor (Homo sapiens, UniProt P07550). The experiment can be described thus: ADRB2 activation measured by internalization – cell-based, FAP fluorogen, flow cytometry, cherry pick 1, dose response (AID 588763). It is filed as functional. On the technique in general: A flow cytometer gives signals particle by particle.
Beta-2 adrenergic receptor, sequence (P07550 whole entry): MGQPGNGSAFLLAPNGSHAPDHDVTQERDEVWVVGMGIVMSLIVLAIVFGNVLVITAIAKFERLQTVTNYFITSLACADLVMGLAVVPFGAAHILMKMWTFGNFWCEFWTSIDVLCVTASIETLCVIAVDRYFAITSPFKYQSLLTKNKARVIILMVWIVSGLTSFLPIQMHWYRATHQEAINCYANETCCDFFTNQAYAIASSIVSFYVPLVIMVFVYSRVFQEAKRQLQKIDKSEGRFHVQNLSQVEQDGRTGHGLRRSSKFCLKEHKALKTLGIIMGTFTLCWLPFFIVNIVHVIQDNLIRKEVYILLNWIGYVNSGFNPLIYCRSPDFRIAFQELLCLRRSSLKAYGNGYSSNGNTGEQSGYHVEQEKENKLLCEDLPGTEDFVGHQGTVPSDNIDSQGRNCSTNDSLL
Experiment [3] can be described thus: Luminescence Cell-Based Dose Confirmation HTS to Identify Inhibitors of Platelet Dense Granule Release. [Related pubchem assays: 1663 (Primary HTS), 1678 (Summary of Project)]. It is filed as functional.
Experiment [4] deals with T1, CAAX prenyl protease 2 (Homo sapiens, UniProt Q9Y256).
T1 sequence (Q9Y256 whole entry): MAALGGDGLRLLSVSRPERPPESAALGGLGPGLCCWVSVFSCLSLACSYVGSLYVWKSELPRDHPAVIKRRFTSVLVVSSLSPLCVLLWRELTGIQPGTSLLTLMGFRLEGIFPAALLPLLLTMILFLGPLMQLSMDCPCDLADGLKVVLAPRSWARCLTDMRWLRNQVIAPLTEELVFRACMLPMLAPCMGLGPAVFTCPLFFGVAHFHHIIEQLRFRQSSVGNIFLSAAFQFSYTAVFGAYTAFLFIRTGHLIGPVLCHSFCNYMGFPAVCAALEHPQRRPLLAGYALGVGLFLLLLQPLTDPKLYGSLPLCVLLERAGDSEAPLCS
Briefly: inhibition of Ras-converting CAAX protease Rce1 – biochemical, yeast membranes, quenched-peptide fluorescence, cherry-pick, dose response (AID 588849).

For experiment [5], the target named is T2, CAAX prenyl protease 2 (Saccharomyces cerevisiae S288c, UniProt Q03530).
T2 sequence (Q03530 whole entry): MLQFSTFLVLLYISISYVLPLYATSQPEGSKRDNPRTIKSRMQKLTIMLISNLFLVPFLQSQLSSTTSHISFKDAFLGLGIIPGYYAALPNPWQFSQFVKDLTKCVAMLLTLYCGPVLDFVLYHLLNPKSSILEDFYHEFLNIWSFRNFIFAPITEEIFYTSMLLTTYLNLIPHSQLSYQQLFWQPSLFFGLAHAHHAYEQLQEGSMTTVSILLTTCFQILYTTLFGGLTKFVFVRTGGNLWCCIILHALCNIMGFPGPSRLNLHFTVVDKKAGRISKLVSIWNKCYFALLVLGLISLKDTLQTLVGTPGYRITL
The class given is biochemical.

Experiment [6] addresses Dual specificity protein kinase CLK1 (Homo sapiens, UniProt P49759). Briefly: inhibition of human CLK1 activity – biochemical, cherry-picked samples, selectivity assay for Dyrk1A inhibitor project, dose response (AID 588811).
In another experiment the test system is HeLa. Briefly: ATP-based viability loss in HeLa cells – cell-based, CellTiter-Glo luminescence, cherry-pick samples, cytotoxicity control for MITF activator project, dose response (AID 540259). Conditions: Homo sapiens. It is filed as functional.
Experiment [7] can be described thus: Trypanosoma cruzi growth suppression in host cells – NIH3T3 host cells, beta-gal luminescence, confirmation (AID 2044).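 Note: intracellular parasites grown in NIH/3T3 mouse fibroblasts as host cells; luminescent beta-galactosidase reporter signal from transgenic T. cruzi replicating inside host cells; inhibitors lower the luminescence signal.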 The class given is functional, cell-based.
A short description of experiment [8]: NIH3T3 cell viability loss – ATP luminescence, mouse fibroblasts, counter-screen, dose response (AID 2010).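 Note: cells exposed to compound for about 90 hours before reading.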 It is filed as functional, cell-based. In general terms: A counterscreen serves to expose hits that act by an unwanted route or on another target.
The subject of experiment [9] is Vero. The experiment can be described thus: viability of Vero cells under compound – cytotoxicity control for flavivirus capping enzyme inhibitors (AID 588742). To be noted: Chlorocebus sabaeus. It is filed as functional.
Experiment [10] has as its target Dual specificity tyrosine-phosphorylation-regulated kinase 1A (Rattus norvegicus, UniProt Q63470). It is filed as biochemical, Homo sapiens.
Another experiment concerns the target T3, Streptokinase A (Streptococcus pyogenes serotype M1, UniProt P10520).
T3 sequence (P10520 whole entry): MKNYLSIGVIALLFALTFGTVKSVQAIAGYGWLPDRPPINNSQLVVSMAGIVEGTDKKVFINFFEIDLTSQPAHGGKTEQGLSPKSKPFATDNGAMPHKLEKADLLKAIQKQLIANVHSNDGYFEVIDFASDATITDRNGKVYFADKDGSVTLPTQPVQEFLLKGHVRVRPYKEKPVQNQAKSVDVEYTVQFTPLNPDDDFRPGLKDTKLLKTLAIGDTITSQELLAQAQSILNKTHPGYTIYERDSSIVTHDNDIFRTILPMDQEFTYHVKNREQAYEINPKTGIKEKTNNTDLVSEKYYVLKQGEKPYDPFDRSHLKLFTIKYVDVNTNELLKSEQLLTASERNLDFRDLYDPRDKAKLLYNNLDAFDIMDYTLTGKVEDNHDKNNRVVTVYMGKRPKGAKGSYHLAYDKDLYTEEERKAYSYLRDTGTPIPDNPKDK
The experiment can be described thus: viability-normalized secreted streptokinase activity reduction – plasminogen activation absorbance, OD405, dose response (AID 1914).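 Note: secreted streptokinase activity via plasminogen activation per viability signal from cell pellet.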 The class given is functional, Streptococcus pyogenes M1 GAS.

The subject of experiment [11] is Streptococcus sp. 'group A'. The experiment can be described thus: Streptococcus pyogenes SK(-)GAS viability under kanamycin – luminescence, BacTiterGlo, confirmation, counter-screen for streptokinase expression inhibitor project, dose response (AID 1900). It is filed as functional, organism-based. To be noted: Streptococcus sp. 'group A'.
The subject of another experiment is Streptococcus. The experiment can be described thus: GAS UMAA2166 growth inhibition – luminescence, BacTiterGlo, counter-screen for streptokinase expression inhibitor project, dose response (AID 1915).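 Note: potency for reduction of bacterial viability or growth.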 Conditions: Streptococcus. It is filed as functional, organism-based.
In experiment [12] the target is T4, Rac GTPase-activating protein 1 (Homo sapiens, UniProt Q9H0H5).
T4 sequence (Q9H0H5 whole entry): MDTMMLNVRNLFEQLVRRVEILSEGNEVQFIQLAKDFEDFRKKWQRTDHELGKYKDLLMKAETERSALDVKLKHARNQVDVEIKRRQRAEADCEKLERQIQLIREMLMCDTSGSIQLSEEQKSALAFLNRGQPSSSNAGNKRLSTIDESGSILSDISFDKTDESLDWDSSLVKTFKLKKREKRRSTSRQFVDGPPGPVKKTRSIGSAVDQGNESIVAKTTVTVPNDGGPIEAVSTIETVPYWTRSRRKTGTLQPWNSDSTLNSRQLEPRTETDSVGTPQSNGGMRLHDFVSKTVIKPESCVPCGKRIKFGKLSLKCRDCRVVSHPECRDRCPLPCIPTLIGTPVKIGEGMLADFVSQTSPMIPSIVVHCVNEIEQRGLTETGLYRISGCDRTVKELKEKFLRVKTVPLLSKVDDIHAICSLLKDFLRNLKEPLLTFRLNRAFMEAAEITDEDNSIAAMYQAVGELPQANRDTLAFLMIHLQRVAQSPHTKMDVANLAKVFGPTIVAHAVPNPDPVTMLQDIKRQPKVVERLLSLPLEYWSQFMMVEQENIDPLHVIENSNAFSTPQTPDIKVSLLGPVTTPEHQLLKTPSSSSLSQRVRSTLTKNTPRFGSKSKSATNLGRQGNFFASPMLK
Briefly: blockers of MgcRacGAP-driven Rac1 GTP hydrolysis – biochemical, ADP Hunter fluorescence, primary and confirmatory, confirmation (AID 624330). It is filed as functional.

Experiment [13] deals with T5, Small ubiquitin-related modifier 1 (Homo sapiens, UniProt P63165). The experiment can be described thus: SUMO1 protein interaction blockers, potency – biochemical, fluorescence polarization, uHTS hits, dose response (AID 624382). To be noted: read-out: IC50_Mean. The class given is functional. (Polarisation of emitted light reports the rotation of a fluorescent probe.)
T5 sequence (P63165 whole entry): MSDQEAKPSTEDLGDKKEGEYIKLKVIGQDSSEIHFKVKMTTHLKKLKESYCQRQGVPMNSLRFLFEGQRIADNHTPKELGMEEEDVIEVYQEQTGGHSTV

In experiment [14] the test system is BJ. The experiment can be described thus: BJ-TERT fibroblast viability loss – cell-based, RAS-independent, luminescence, dose response (AID 1933). It is filed as functional. Conditions: Homo sapiens.
Experiment [15] has as its system BJ. Briefly: cells. The class given is functional, cell-based. Conditions: Homo sapiens.
A further experiment deals with Escherichia coli. The experiment can be described thus: microbe, parasite or virus in culture.
Experiment [16] addresses T5, Small ubiquitin-related modifier 1. Briefly: SUMO1 protein-protein binding blockers, potency – biochemical, FRET, dose response (AID 624383). It is filed as functional. Conditions: read-out: IC50_Mean.
Experiment [17] concerns the target T6, DNA repair protein RAD52 homolog (Homo sapiens, UniProt P43351).
T6 sequence (P43351 whole entry): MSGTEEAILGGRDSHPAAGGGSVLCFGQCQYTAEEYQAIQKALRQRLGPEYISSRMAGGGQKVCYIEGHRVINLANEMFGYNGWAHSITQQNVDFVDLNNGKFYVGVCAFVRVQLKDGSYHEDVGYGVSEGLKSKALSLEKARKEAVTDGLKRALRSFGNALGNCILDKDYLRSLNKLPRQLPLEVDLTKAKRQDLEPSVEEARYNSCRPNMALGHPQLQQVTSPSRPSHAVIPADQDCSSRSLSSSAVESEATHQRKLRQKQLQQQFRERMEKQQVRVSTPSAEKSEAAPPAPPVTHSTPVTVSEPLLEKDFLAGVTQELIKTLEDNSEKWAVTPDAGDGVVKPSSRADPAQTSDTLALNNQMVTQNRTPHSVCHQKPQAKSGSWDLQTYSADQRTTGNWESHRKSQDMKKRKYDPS
It is filed as functional, biochemical.

Experiment [18] deals with BJ. The experiment can be described thus: BJ-TERT-LT-ST fibroblast viability loss – cell-based, RAS-independent, luminescence, dose response (AID 1935).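 Note: BJ fibroblasts immortalized with TERT plus LT and ST oncogenes.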 To be noted: Homo sapiens. The class given is functional.
A short description of experiment [19]: DRD fibroblast viability loss – cell-based, non-viral oncogenic, luminescence, dose response (AID 1934). It is filed as functional. Conditions: Homo sapiens.
Experiment [20] concerns Vero. Briefly: cells. It is filed as functional. To be noted: Chlorocebus sabaeus.
Experiment [21] has as its system BJ. Briefly: growth inhibition of engineered Ras-driven BJ cells – cell-based, alamar blue fluorescence, cherrypicked samples, dose response (AID 2631).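 Note: confirmatory dose-response assay in RAS-dependent BJ fibroblasts engineered with TERT, LT and ST, with cytotoxicity read by fluorescence.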 To be noted: Homo sapiens. It is filed as functional.

Dual specificity protein kinase CLK1, sequence (P49759 whole entry): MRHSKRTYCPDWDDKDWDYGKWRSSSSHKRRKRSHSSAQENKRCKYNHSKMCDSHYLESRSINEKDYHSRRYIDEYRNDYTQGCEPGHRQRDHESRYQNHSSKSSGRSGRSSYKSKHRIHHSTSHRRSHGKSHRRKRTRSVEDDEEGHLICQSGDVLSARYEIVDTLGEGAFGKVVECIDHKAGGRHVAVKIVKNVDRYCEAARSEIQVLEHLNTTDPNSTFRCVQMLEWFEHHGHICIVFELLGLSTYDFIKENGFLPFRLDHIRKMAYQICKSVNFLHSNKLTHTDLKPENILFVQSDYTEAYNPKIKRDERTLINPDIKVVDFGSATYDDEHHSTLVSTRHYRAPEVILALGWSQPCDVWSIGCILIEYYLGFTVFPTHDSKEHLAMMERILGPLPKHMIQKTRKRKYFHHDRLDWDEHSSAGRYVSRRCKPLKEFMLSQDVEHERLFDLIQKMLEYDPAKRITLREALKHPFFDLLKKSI
Luciferin 4-monooxygenase, sequence (P08659 whole entry): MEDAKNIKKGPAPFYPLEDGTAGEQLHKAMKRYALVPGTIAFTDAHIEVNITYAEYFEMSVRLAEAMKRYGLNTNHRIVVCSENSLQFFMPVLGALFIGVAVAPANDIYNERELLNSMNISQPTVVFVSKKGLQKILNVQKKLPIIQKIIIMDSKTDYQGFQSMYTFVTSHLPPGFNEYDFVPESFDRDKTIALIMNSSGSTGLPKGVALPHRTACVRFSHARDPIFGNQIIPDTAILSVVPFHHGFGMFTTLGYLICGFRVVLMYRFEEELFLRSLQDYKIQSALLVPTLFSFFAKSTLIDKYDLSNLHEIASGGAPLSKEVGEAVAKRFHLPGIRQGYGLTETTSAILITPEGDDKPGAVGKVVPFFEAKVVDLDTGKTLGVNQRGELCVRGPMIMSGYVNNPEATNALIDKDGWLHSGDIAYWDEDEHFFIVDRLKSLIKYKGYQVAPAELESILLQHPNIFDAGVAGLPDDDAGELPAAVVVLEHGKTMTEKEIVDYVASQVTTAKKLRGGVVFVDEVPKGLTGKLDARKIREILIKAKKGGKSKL

In general, EC50 refers to the concentration that produces a half-maximal response. As to `COc1cc(OC)nc(NC(=O)CSc2nnc(-c3ccccc3)n2C2CCCCC2)n1`, the figures for the EC50 in [1], in experiment [2] and in [3] were > 112 µM (not active), 1.05 µM (active) and > 112 µM (not active), respectively.
A word on the AC50: it is the midpoint of the concentration-response curve, whichever way the signal moves. For `CCOC(=O)c1c(NC(=O)c2cccc(N3C(=O)CCC3=O)c2)sc(C)c1C`, the AC50 on CAAX prenyl protease 2 [4] is 31.5 µM (active); on CAAX prenyl protease 2 [5] it was > 100 µM (inactive).
As for `CSc1ccc(/C=C/C(=O)OCC(=O)NC(C)C)cc1`, at CAAX prenyl protease 2 [4], the AC50 was 35.8 µM (active).
Consider `Cc1nc(CNc2ncnc3ccc(-c4ccoc4)cc23)cs1`, for which the AC50 in experiment [6] is 0.0311 µM (active).
For the compound `N#Cc1ccc(NC(=O)c2cccs2)nc1`, in the experiment on HeLa, the AC50 is 248 µM (active).
Regarding `C=CCn1c(SCc2ccccc2Cl)nnc1-c1sc2nc(C)cc(C)c2c1N`, the results for the EC50 in [7], in [2] and in experiment [8] were 0.161 µM (active), 0.0757 µM (active) and > 60 µM (not active), respectively.
What is called CC50 is the concentration at which the toxic effect on the cells reaches its halfway point. For `COc1cc(CNc2ccc(O)cc2)cc(Br)c1OCc1ccccc1F`, the CC50 in the experiment on Vero [9] was > 40 µM (active).
`CCN1CCN(Cc2ccc(NC(=O)c3ccc(C)c(NC(=O)N4CCNC4=O)c3)cc2C(F)(F)F)CC1`: the concentration at half-maximal activity (AC50) was 8.71 µM (active) in [10] and 2.29 µM (active) in experiment [6].
With `O=C(Nc1nc(-c2ccc3c(c2)OCCO3)cs1)c1ccco1`, the AC50 was 6.45 µM (active) in experiment [10] and 3.98 µM (active) in experiment [6]. Further, the values for the concentration giving a half-maximal response (EC50) (on Streptokinase A; in experiment [11]; in the experiment on Streptococcus) were > 150 µM (not active), 20.1 µM (active) and > 150 µM (not active), respectively.
Turning to `c1ccc2oc(-c3ccc4[nH]cnc4c3)nc2c1`, the AC50 in the experiment with HeLa was 69.6 µM (active).
Turning to `COc1ccc(N2C(=O)c3ccccc3NC23CCCCC3)cc1`, the AC50 with HeLa was 300 µM (active).
In the case of `O=C(c1cccc(Cl)c1)N1CCC(C(=O)N2CCN(Cc3ccccc3)CC2)CC1`, in [2], the concentration for a half-maximal effect (EC50) was 5.89 µM (active).
As to `Cn1ccc(=Nc2ccc(NC(=O)c3ccc(/N=c4\ccn(C)c5ccc([N+](=O)[O-])cc45)cc3)cc2)cc1`, the IC50 in experiment [12] is 35.5 µM (active); in experiment [13], > 66.6 µM (inactive); in [16] it was 13.1 µM (active). Besides, the EC50 is 15.3 µM (active) in the experiment on BJ [14]; 18 µM (inconclusive) in the experiment with BJ [15]; 28 µM (inconclusive) at Streptokinase A; > 150 µM (inconclusive) in the experiment with BJ [18]; 0.976 µM (active) in experiment [11]; 17.1 µM (active) in experiment [19]. Further, the concentration for a half-maximal effect (EC50) with Streptococcus was 2.47 µM (active). Besides, the values for the concentration at half-maximal activity (AC50) (with Escherichia coli; in [17]) were 12 µM (active) and 1.28 µM (active), respectively.
As to `COc1ccc(/C=N\NC(=O)c2cccc(F)c2)cc1COc1ccccc1`, the concentration giving a half-maximal response (EC50) is 0.575 µM (inconclusive) in the experiment with BJ [14]; 31.5 µM (active) in the experiment on BJ [15]; 5.12 µM (inconclusive) in the experiment on BJ [18]; 1.15 µM (active) in experiment [19]; 0.286 µM (active) in the experiment with BJ [21]. Moreover, in the experiment with Vero [20], the CC50 is 0.35 µM (active).
